Reference: patent US20060286625A1, “Rapid enrichment for Listeria” (Kraft Foods Holdings, Inc., priority 2005, published 2006)

The compounds below were run on environmental isolates (assay: Effect of Polymyxin B, Acriflavine HCl and Ceftazidime on environmental isolates). Details: used together in the Selective medium.
Type: cell-based
Protocol: Nineteen non-Listeria organisms isolated from environmental sponges from meat and dairy manufacturing facilities were inoculated separately into Tryptic Soy broth (TSB, Difco) and incubated for 24 h at 30° C. The isolates were screened for growth in Selective and Non-Selective media by monitoring absorbance via a spectrophotometer. 900 μl of test media and either 100 μl of culture or Butterfield's Buffer (International BioProducts) were added to a cuvette and incubated at 30° C. Absorbance readings were taken at 660 nm on a spectrophotometer (Shimadzu UV160U) at To, 2 h, 4 h, and 6 h and compared to the corresponding blank cuvette with buffer. Growth was scored by absorbance readings.
The Non-Selective medium consisted of Universal Preenrichment Broth (UPB, Difco) with 0.4% Yeast Extract (YE, Difco). The Selective medium consisted of Universal Preenrichment Broth (UPB, Difco) with 0.4% Yeast Extract (YE, Difco), 0.001% Polymymin B, 0.0005% Acriflavine HCl, and 0.002% Ceftazidime.
Several environmental organisms screened via spectrophotometer were selected to test in mixed culture with Listeria. Environmental isolates were inoculated separately into TSB and incubated for 24 h at 30° C. The growth level was determined by serial dilutions plated on Tryptic Soy agar (TSA, Difco) and incubated at 30° C. for 24 h. Based on the cell counts, the culture was diluted in Butterfield's Buffer and a volume of the diluted culture targeting an initial cell count of 1000 CFU/mL was inoculated into the test media.
30 mL of Non-Selective or Selective medium was added to 10 ml of Butterfield's Buffer to simulate the addition of media to environment sponge. A Non-Selective and Selective medium was inoculated with Listeria culture alone, environmental isolate alone, and Listeria and environment isolate combined. The media were incubated in a water bath at 30° C. Serial dilutions of inoculated media were collected at To and 8 h and plated on Oxford Media Base and a differential media particular to the environmental isolate being tested (see Table 2). […]
With `CC(C)(O/N=C(\C(=O)N[C@@H]1C(=O)N2C(C(=O)[O-])=C(C[n+]3ccccc3)CS[C@H]12)c1csc(N)n1)C(=O)O` [Ceftazidime] the “Effectiveness as selective agents against environmental isolates (in words)” value (shortened to “Effectiveness as selective agents”) was “effective selective agents against many environmental isolates”.
For Acriflavine HCl, the “Effectiveness as selective agents” value was “effective selective agents against many environmental isolates”.
In the case of Polymyxin B, the “Effectiveness as selective agents” value is reported as “effective selective agents against many environmental isolates”.
